Source: paper PMC8231556, “Inhibiting Endothelial Cell Function in Normal and Tumor Angiogenesis Using BMP Type I Receptor Macrocyclic Kinase Inhibitors” (Cancers, 2021)

How the values were obtained:
[1] = system: constitutively active ALK2 (caALK2); test: caALK2-induced BRE-Luc reporter activity in C2C12 cells; format: cell-based; settings: C2C12 cells, 0.1, 0.5 or 1 μM, 16 hours
Source text: To further investigate and validate the selective inhibitory effects of OD16 and OD29 toward BMP9/ALK1 and BMP6/ALK2 signaling, we transfected C2C12 myoblast cells with constitutively active mutant ALK1 and ALK2 (caALK1 and caALK2). These constitutively active receptors signal in the absence of exogenous ligands and allow for a more direct assessment of inhibitory effects that are elicited by kinase receptor inhibitors.
Figure S2. Structural model of (A) LDN−193189, (B) OD16 (grey) overlay with LDN−193189 (green), (C) OD29 (grey) over-lay with LDN−193189 (green) bind to the ALK1 hinge region in the ATP pocket.
Figure S3. RT-qPCR analysis of the ALK1, ALK2 and GAPDH mRNA expression in EA.hy926 and HUVEC cells. Mean Cq and Cq standard error of the mean (SEM) are listed. Representative results from three independent experiments are shown.
Figure S4. OD29 and OD16 are two small molecule BMP type I receptors kinase inhibitors in C2C12 cells. Effects of vehicle control (DMSO), LDN−193189, OD16 or OD29 on BRE transcriptional luciferase reporter activity induced by the ectopic expression of caALK1 (A) or caALK2 (B) in C2C12 cells. Cells were incubated with the inhibitors in three different con-centrations (0.1 μM, 0.5 μM or 1 μM) for 16 hours. Representative results from three biologically independent experiments are shown as mean ± SD. NS, not significant; * p < 0.05, ** p < 0.005; *** p < 0.001. […]

[2] = system: VEGF-induced pVEGFR; test: Western blot of VEGF-induced VEGFR phosphorylation in HUVECs; format: cell-based, human; settings: VEGF 40 ng/mL
Procedure: EA.hy926 cells or HUVECs were seeded in 6-well plates and starved in a serum-free medium for 4 h after reaching 80% confluence. The compounds were added 30 min prior to stimulation with the corresponding ligands. EA.hy926 cells were incubated with BMP9 (1 ng/mL), BMP6 (50 ng/mL), TGF-β2 (1 ng/mL), or vehicle control for 1 h. For HUVECs, after 4 h starvation, the cells were pre-treated with or without the indicated compounds for 30 min and subsequently stimulated with VEGF (40 ng/mL) for 10 min. The cells were harvested and lysed in radioimmunoprecipitation assay (RIPA) lysis buffer containing 1× complete protease inhibitor cocktail (11836153001, Roche, Basel, Switzerland). The protein concentration was determined using the DC protein assay kit (5000111, Bio-Rad). After adding loading buffer, the samples were boiled and proteins separated by sodium dodecyl sulfate polyacrylamide gel electrophoresis (SDS-PAGE). […] The protein bands were quantified using ImageJ (National Institutes of Health, Bethesda, MD, USA).

| Structure (SMILES) | effect on caALK2-induced BRE-Luc reporter activity [1] | effect on VEGF-induced pVEGFR [2] |
| --- | --- | --- |
| c1ccc2c(-c3cnn4cc(-c5ccc(N6CCNCC6)cc5)cnc34)ccnc2c1 [LDN-193189, reference compound] | in a dose-dependent manner attenuated | – |
| CN1CCC(=O)NCCNc2ccn3ncc(c3n2)-c2cccc(c2)C1 [OD29] | – | did not affect |
